Experimental data reported in patent US20230233592A1, “PHARMACEUTICAL COMPOSITION FOR THE CHEMICAL INHIBITION OF TGS1 IN THE THERAPEUTIC TREATMENT OF TELOMEROPATHIES” (priority 2020, published 2023).
Entries after “also recorded” stand apart in the source; their conditions may differ. Where two headings read alike, the source gives them in different places.

Columns and labels:
[1] = system: Leishmania; conditions: cited from earlier work
[2] = system: UMUC3 cells; test: qRT-PCR analysis of hTR levels in UMUC3 cells; format: cell-based, human; conditions: Sinefungin 100 μM for 10 days
Procedure: (A, E) qRT-PCR analysis of levels of hTR on RNA of UMUC3 cells (A) or of the cell line HeLa PARN KO (E), treated or not with 50 μM Sinefungin for 10 days. The bars represent the variation in the levels of hTR in the treated cells and in the not treated cells, obtained by three replicates. The effects of Sinefungin were tested on the tumour cell line of UMUC3 bladder, characterized by limiting levels of hTR for the activity telomerase and by short telomeres (Xu L. & Blackburn E. H. Mol Cell 28, 2007). The UMUC3 cells were treated with Sinefungin 100 μM for 10 days, and then the levels of RNA hTR were determined. […] In order to confirm that Sinefungin is capable of striking specifically the TGS1 enzyme, a treatment with Sinefungin was tested on clones of UMUC3 cells, characterized by CRISPR-induced mutations in TGS1 (Chen et al.) (FIG. 3C), inside thereof there is a lengthening of the telomeres over time due to a deficiency of TGS1 (FIG. 3D). Control cells and mutant cells were cultivated for 46 days in presence or absence of Sinefungin.

[3] = target: T1, recombinant TGS1 enzyme fused to protein GST (Homo sapiens, UniProt Q96RS0); test: In vitro hypermethylation assay with recombinant GST-TGS1 enzyme; format: biochemical; conditions: Sinefungin 100 μM; 50 μM [3H-CH3]AdoMet; 5 mM m7GTP
T1 construct: made in house; host or cells: bacterial cells
Procedure: Sinefungin, analogous of S-adenosyl-methionine, inhibits the reaction of hypermethylation catalyzed by TGS1. (A) In vitro assay of hypermethylation performed by incubating 1 μg of recombinant GST-TGS1 or GST with 50 μM [^3H—CH3]AdoMet (SAM) and with 5 mM m^7GTP (MMG), in presence or not of 100 μM Sinefungin. Aliquots of the reaction mixture are placed on cellulose-polyethyleneimine and the reaction products are resolved by means of TLC. The incorporation of ^3H—CHs in the methylated derivatives of MMg (DMG or TMG) is quantified by means of liquid scintillation counting. (B) Control reactions performed without protein or GST. (C) The entity of transfer of ^3H-methyl to the dinucleotide cap is shown. The Sinefungin capability of inhibiting the methyl-transferase activity of TGS1 enzyme was evaluated by means of recombinant in vitro hypermethylation assay by using recombinant TGS1 enzyme fused to protein GST. After having purified TGS1-GST from bacterial cells, still immobilized on glutathione beads, or GST alone, the assay was performed in presence or absence of Sinefungin, by using [^3H—CH3]AdoMet as methyl donor and m^7GTP (MMG) as substrate.

[4] = system: HeLa PARN KO cells; test: qRT-PCR analysis of hTR levels in HeLa PARN KO cells; format: cell-based, human; conditions: 50 μM Sinefungin, 10 days
Procedure: (A, E) qRT-PCR analysis of levels of hTR on RNA of UMUC3 cells (A) or of the cell line HeLa PARN KO (E), treated or not with 50 μM Sinefungin for 10 days. The bars represent the variation in the levels of hTR in the treated cells and in the not treated cells, obtained by three replicates. The effects of Sinefungin were tested on mutant HeLa cells for PARN deadenylase (PARN KO) enzyme, one of the causative factors of congenital dyskeratosis (Tummala et al., 2015) (Roake C. M. et al. Mol cell 74, 2019). PARN KO cells, obtained in the laboratory of […] (Stanford University), are characterized by short telomeres, due to the reduced levels of RNA component of telomerase.

[5] = system: Toxoplasma gondii; conditions: mice infected with Toxoplasma gondii; cited from earlier work
[6] = system: HeLa PARN KO cells; test: Telomere Restriction Fragment (TRF) analysis in HeLa PARN KO cells; format: cell-based, human; conditions: 50 μM Sinefungin, 46 days
Procedure: (B,D,F) Determination of the telomeric length by means of Telomere Restriction Fragment analysis (TRF, performed according to the methods described in Roake, C. M. et al. Mol Cell 74, 2019) in two cell types characterized by short telomeres: the UMUC3 tumour cell line and the HeLa cells lacking in TGS1 or deadenylase PARN. (F) HeLa PARN KO cells were treated or not with 50 μM of Sinefungin for the period of time indicated in culture. Due to the reduced levels of RNA component of telomerase, the average telomeric length is shorter in the PARN KO cells (lane 13) rather than in the parental HeLa cell line. (4.5 kb vs 7.5 kb). […] The effects of Sinefungin were tested on mutant HeLa cells for PARN deadenylase (PARN KO) enzyme, one of the causative factors of congenital dyskeratosis (Tummala et al., 2015) (Roake C. M. et al. Mol cell 74, 2019). PARN KO cells, obtained in the laboratory of […] (Stanford University), are characterized by short telomeres, due to the reduced levels of RNA component of telomerase.

[7] = target: RNA hypermethylase TGS1 (Homo sapiens, UniProt Q96RS0); conditions: Yedavalli & Jeang 2010; cited from earlier work
[8] = system: UMUC3 cells; test: Telomere Restriction Fragment (TRF) analysis in TGS1-proficient UMUC3 cells; format: cell-based, human; conditions: TGS1-proficient UMUC3 cells cultivated with Sinefungin, over 15 population doublings / 46 days
Procedure: (B,D,F) Determination of the telomeric length by means of Telomere Restriction Fragment analysis (TRF, performed according to the methods described in Roake, C. M. et al. Mol Cell 74, 2019) in two cell types characterized by short telomeres: the UMUC3 tumour cell line and the HeLa cells lacking in TGS1 or deadenylase PARN. […] No lengthening of telomeres in the not-treated parental cells is observed (lanes 9-10). The effects of Sinefungin were tested on the tumour cell line of UMUC3 bladder, characterized by limiting levels of hTR for the activity telomerase and by short telomeres (Xu L. & Blackburn E. H. Mol Cell 28, 2007). The UMUC3 cells were treated with Sinefungin 100 μM for 10 days, and then the levels of RNA hTR were determined. […] In order to confirm that Sinefungin is capable of striking specifically the TGS1 enzyme, a treatment with Sinefungin was tested on clones of UMUC3 cells, characterized by CRISPR-induced mutations in TGS1 (Chen et al.) (FIG. 3C), inside thereof there is a lengthening of the telomeres over time due to a deficiency of TGS1 (FIG. 3D). Control cells and mutant cells were cultivated for 46 days in presence or absence of Sinefungin.

[9] = high doses, goats; cited from earlier work
[10] = system: fungal cap methyltransferase enzyme; conditions: Chrebet et al. 2005; cited from earlier work
[11] = high doses, dogs; cited from earlier work
[12] = target: T2, SET7/9 lysine methyltransferase (Mus musculus, UniProt Q8VHL1); conditions: murine model for renal fibrosis; cited from earlier work
T2 construct: host or cells: murine model of renal fibrosis
T2 sequence (Q8VHL1 1-366): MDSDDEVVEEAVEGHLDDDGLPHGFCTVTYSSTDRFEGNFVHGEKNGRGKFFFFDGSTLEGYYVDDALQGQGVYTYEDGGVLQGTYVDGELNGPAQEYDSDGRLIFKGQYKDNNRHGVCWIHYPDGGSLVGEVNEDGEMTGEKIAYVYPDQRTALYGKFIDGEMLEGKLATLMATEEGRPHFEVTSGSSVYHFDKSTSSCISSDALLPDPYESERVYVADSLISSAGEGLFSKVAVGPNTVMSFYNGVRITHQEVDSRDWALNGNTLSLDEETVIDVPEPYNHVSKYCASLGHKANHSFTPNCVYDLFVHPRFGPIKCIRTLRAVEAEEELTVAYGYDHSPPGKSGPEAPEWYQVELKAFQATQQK

RNA hypermethylase TGS1, sequence (Q96RS0 whole entry, the tested form may be a part): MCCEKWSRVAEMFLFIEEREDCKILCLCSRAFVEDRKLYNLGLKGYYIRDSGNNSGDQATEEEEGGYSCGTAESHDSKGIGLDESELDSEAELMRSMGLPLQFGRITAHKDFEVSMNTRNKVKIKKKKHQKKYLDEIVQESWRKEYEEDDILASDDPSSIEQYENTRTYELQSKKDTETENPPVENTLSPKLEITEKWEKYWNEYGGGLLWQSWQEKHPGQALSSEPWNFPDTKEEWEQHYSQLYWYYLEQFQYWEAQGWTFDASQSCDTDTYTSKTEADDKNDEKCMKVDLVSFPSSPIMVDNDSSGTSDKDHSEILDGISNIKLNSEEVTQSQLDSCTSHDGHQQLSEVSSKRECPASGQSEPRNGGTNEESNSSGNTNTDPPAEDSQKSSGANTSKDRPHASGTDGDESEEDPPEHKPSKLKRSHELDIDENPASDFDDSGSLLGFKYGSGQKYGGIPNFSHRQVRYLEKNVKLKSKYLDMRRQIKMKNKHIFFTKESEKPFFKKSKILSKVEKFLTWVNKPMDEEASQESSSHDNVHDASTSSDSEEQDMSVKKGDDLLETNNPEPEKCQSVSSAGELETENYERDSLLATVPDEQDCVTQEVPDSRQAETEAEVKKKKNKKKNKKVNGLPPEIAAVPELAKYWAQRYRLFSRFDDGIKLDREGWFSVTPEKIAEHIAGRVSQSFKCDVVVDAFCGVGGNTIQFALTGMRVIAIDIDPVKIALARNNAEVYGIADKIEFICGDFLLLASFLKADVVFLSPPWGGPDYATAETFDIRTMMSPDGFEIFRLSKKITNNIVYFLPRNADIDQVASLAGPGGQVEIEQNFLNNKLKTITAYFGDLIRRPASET
T1 sequence (Q96RS0 whole entry, the tested form may be a part): as above

Sinefungin
survival of infected mice ([1]; mice infected with various isolates of Leishmania): increased the survival of mice
toxic effects in infected mice ([1]; mouse, in vivo): without showing clinically detectable toxic effects
increase in the levels of hTR [2]: 1.5 times
methyl-transferase activity of TGS1 (3H-methyl transfer to m7GTP, TLC / liquid scintillation) [3]: inhibit the methyl-transferase activity of TGS1
levels of hTR [4]: a significative increase in the levels of hTR
survival of infected mice [5]: increased the survival of mice
telomere length (TRF) [6]: a lengthening of telomeres; also recorded: a substantial increase in the telomere length
inhibition of TGS1 in human cells [7]: inhibits RNA hypermethylase TGS1
telomere length (TRF) [8]: A lengthening of telomeres takes place in the treated control cells; also recorded: a lengthening of the telomeres was observed
nephrotoxicity [9]: nephrotoxic effects were detected
inhibition of fungal cap methyltransferase with respect to the human ortholog [10]: ten times more effectively
nephrotoxicity [11]: nephrotoxic effects were detected
renal fibrosis pathology [12]: an improvement in the pathology
